Source: US9079913B2, “Spiro-oxindole MDM2 antagonists” (The Regents of the University of Michigan, priority 2009, dated 2015)
Like-named read-outs stand apart in the source and are kept apart here.

Tests used:
[1] = system: cancer cell lines with wild-type p53 / mutated or deleted p53 (ATCC); assay: Cell growth assay (WST-8), other cancer cell lines; format: cell-based
[2] = system: Isogenic HCT-116 colon cancer cell lines; assay: cells; format: cell-based;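 further: cells grown in 96-well plates in McCoy's 5A medium with 10% FBS, exposed to compound for 4 days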
Procedure: Cells were seeded in 96-well flat bottom cell culture plates at a density of 2−3×10^3 cells/well with compounds and incubated for 4 days.

[3] = target: recombinant human His-tagged MDM2 protein (residues 1-118) (Homo sapiens (Human), UniProt Q00987); assay: Fluorescence-polarization MDM2 binding assay;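 further: fluorescence polarization read after three hours of incubation in potassium phosphate buffer containing bovine gamma globulin and Triton X-100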
[4] = Homo sapiens, LNCaP, Table 19B, LNCaP cells, read-out: Inhibition of cell growth IC50, LNCaP
[5] = Homo sapiens, PC-3, Table 19B, PC3 cells, read-out: Inhibition of cell growth IC50, PC3
[6] = Homo sapiens, HCT-116, read-out: Inhibition of cell growth IC50, HCT116 p53 KO, Table 19B, HCT116 p53 KO
[7] = Homo sapiens, HCT-116, read-out: Inhibition of cell growth IC50, HCT116 p53 WT, Table 19B, HCT116 p53 WT
[8] = Table 19B, read-out: Binding affinities to MDM2 protein as determined by FP based assay IC50
[9] = Homo sapiens, LNCaP, Table 19A, LNCAP cells, p53 wild-type, cell growth, read-out: LNCAP (p53 wild-type) IC50
[10] = Homo sapiens, PC-3, Table 19A, PC-3 cells, deleted p53, cell growth, read-out: PC-3 (deleted p53) IC50
[11] = Homo sapiens, HCT-116, read-out: HCT-116 (p53-/-) IC50, Table 19A, HCT-116 p53-/-, cell growth
[12] = Homo sapiens, HCT-116, read-out: HCT-116 (p53 wild-type) IC50, Table 19A, HCT-116 p53 wild-type, cell growth
[13] = Table 19A, FP binding assay, read-out: MDM2 IC50
[14] = Homo sapiens, LNCaP, Table 19C, LNCaP cells, read-out: Cell growth inhibition using WST assay, LNCaP IC50
[15] = Homo sapiens, PC-3, Table 19C, PC3 cells, read-out: Cell growth inhibition using WST assay, PC3 IC50
[16] = Homo sapiens, HCT-116, read-out: Cell growth inhibition using WST assay, HCT116 p53KO IC50, Table 19C, HCT116 p53KO
[17] = Homo sapiens, HCT-116, read-out: Cell growth inhibition using WST assay, HCT116 p53WT IC50, Table 19C, HCT116 p53WT
[18] = Table 19C, read-out: Bidning affinities to MDM2 as determined using FP assay IC50
[19] = Homo sapiens, LNCaP, Table 19D, LNCaP cells, read-out: LNCaP IC50
[20] = Homo sapiens, PC-3, Table 19D, PC3 cells, read-out: PC3 IC50
[21] = Homo sapiens, HCT-116, read-out: HCT116p53KO IC50, Table 19D, HCT116 p53KO
[22] = Homo sapiens, HCT-116, read-out: HCT116p53WT IC50, Table 19D, HCT116 p53WT
[23] = Table 19D, read-out: MDM2 Binding Affinities IC50

Sequence of recombinant human His-tagged MDM2 protein (residues 1-118) (Q00987 1-118): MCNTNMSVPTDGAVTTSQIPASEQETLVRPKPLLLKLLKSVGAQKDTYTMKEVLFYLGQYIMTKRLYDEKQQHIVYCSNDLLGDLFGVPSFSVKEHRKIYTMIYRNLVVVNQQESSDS

With `CC(C)CC(C)(C)C[C@H]1N(C)[C@@H](C(=O)NCC[C@H](O)CO)[C@H](c2ccc(F)c(Cl)c2)[C@@]12C(=O)Nc1cc(F)c(F)cc12` [MI-738] the IC50 [1, 4] was 4.8 ± 1 µM, the IC50 [1, 5] was 8.5 ± 0.6 µM and the IC50 [2, 6] was 8.2 ± 0.6 µM. For the same molecule, the IC50 [2, 7] was 8.5 ± 2.1 µM and the IC50 [3, 8] was greater than 3 µM.

Molecule `CC(C)(C)C[C@H]1N[C@@H](C(=O)N2CCN(C(=O)C3CC3)CC2)[C@H](c2cccc(Cl)c2)[C@@]12C(=O)Nc1cc(Cl)c(F)cc12` [MI-743] has an IC50 [1, 4] of 2.5 ± 0.5 µM, an IC50 [1, 5] of 7.7 ± 3.1 µM and an IC50 [2, 6] of 5.7 ± 3.4 µM. It also gave an IC50 [2, 7] of 2.4 ± 0.2 µM and an IC50 [3, 8] greater than 1 µM.

In the case of `CCN(CC)C(=O)N1CC(NC(=O)[C@@H]2N[C@H](CC(C)(C)C)[C@]3(C(=O)Nc4cc(Cl)ccc43)[C@H]2c2cccc(Cl)c2F)C1` [MI-917], the IC50 [1, 9] is reported as less than 3 µM, the IC50 [1, 10] is reported as greater than 5 µM and the IC50 [2, 11] is reported as greater than 10 µM. The IC50 [2, 12] was less than 3 µM and the IC50 [3, 13] was less than 1 µM.

Work on `CN(CC[C@H](O)CO)C(=O)[C@@H]1N[C@H](CC(C)(C)C)[C@]2(C(=O)Nc3cc(Cl)c(F)cc32)[C@H]1c1cccc(Cl)c1` [MI-319-29] yielded an IC50 [1, 14] greater than 10 µM, an IC50 [1, 15] greater than 10 µM and an IC50 [2, 16] greater than 10 µM. For the same molecule, the IC50 [2, 17] was greater than 10 µM and the IC50 [3, 18] was greater than 5 µM.

For `CN1[C@@H](C(=O)NCC[C@H](O)CO)[C@H](c2cccc(Cl)c2)[C@@]2(C(=O)Nc3cc(Cl)c(F)cc32)[C@H]1CC(C)(C)C` [MI-717], the IC50 ([1]; Table 19B, LNCaP cells, read-out: Inhibition of cell growth IC50, LNCaP) was 2.7 ± 0.6 µM, the IC50 ([1]; Table 19B, PC3 cells, read-out: Inhibition of cell growth IC50, PC3) was 31.5 ± 1.4 µM and the IC50 ([2]; read-out: Inhibition of cell growth IC50, HCT116 p53 KO, Table 19B, HCT116 p53 KO) was 47.8 ± 1.4 µM. The IC50 ([2]; read-out: Inhibition of cell growth IC50, HCT116 p53 WT, Table 19B, HCT116 p53 WT) was 2.2 ± 0.1 µM and the IC50 [3, 8] was greater than 3 µM.

With `CN1[C@@H](C(=O)NCC[C@H](O)CO)[C@H](c2cccc(Cl)c2F)[C@@]2(C(=O)Nc3cc(F)c(F)cc32)[C@H]1CC(C)(C)C` [MI-519-10-me] the IC50 [1, 19] was greater than 1 µM, the IC50 [1, 20] was greater than 30 µM and the IC50 [2, 21] was greater than 30 µM. It also gave an IC50 [2, 22] greater than 1 µM and an IC50 [3, 23] of less than 10 µM.

`CC(C)CC(C)(C)C[C@H]1N[C@@H](C(=O)NCC[C@H](O)CO)[C@H](c2ccc(F)c(Cl)c2)[C@@]12C(=O)Nc1cc(F)c(F)cc12` [MI-736] gave an IC50 [1, 4] of 0.9 µM, an IC50 [1, 5] of 6.3 ± 1.2 µM and an IC50 [2, 6] of 4.4 ± 0.9 µM. The IC50 [2, 7] was 1 ± 0.2 µM and the IC50 [3, 8] was less than 1 µM.

With `CC(C)(C)C[C@H]1N[C@@H](C(=O)NCC[C@H](O)CO)[C@H](c2cccc(F)c2)[C@@]12C(=O)Nc1cc(F)c(F)cc12` [MI-519-11] the IC50 [1, 19] was greater than 5 µM, the IC50 [1, 20] was greater than 10 µM and the IC50 [2, 21] was greater than 10 µM. It also gave an IC50 [2, 22] greater than 5 µM and an IC50 [3, 23] greater than 5 µM.

With `CC(C)(C)C[C@H]1N[C@@H](C(=O)NCCC(=O)CO)[C@H](c2cccc(Cl)c2)[C@@]12C(=O)Nc1cc(Cl)c(F)cc12` [MI-219-M1 (b)] the IC50 [1, 9] was less than 3 µM, the IC50 [1, 10] was greater than 10 µM and the IC50 [2, 11] was greater than 10 µM. It also gave an IC50 [2, 12] of less than 3 µM and an IC50 [3, 13] of less than 1 µM.

With `CC(C)NC(=O)N1CC(NC(=O)[C@@H]2N[C@H](CC(C)(C)C)[C@]3(C(=O)Nc4cc(Cl)ccc43)[C@H]2c2cccc(Cl)c2F)C1` [MI-911] the IC50 [1, 9] was less than 5 µM, the IC50 [1, 10] was greater than 10 µM and the IC50 ([1]; Homo sapiens, SJSA-1, Table 19A, SJSA-1 cells, p53 wild-type, cell growth, read-out: SJSA-1 (p53 wild-type) IC50) was less than 5 µM. The IC50 [2, 11] was greater than 10 µM, the IC50 [2, 12] was less than 5 µM and the IC50 [3, 13] was less than 3 µM.

`CC(C)CC[C@H]1N[C@@H](C(=O)NCC[C@H](O)CO)[C@H](c2cccc(Cl)c2)[C@@]12C(=O)Nc1cc(Cl)c(F)cc12` [MI-705] showed an IC50 [1, 4] of 1.4 ± 0.8 µM, an IC50 [1, 5] of 43.9 ± 31.7 µM and an IC50 [2, 6] of 32 ± 33.3 µM. It also gave an IC50 [2, 7] of 4.4 ± 4 µM and an IC50 [3, 8] of less than 10 µM.

In the case of `CC(=O)N1CCN(C(=O)[C@@H]2N[C@H](CC(C)(C)C)[C@]3(C(=O)Nc4cc(Cl)c(F)cc43)[C@H]2c2cccc(Cl)c2)CC1` [MI-742], the IC50 [1, 9] is reported as 2.2 ± 0.3 µM, the IC50 [1, 10] is reported as 10.2 ± 4.8 µM and the IC50 [2, 11] is reported as 19.9 ± 10.3 µM. For the same molecule, the IC50 [2, 12] was 1.7 ± 0.1 µM and the IC50 [3, 13] was less than 10 µM.

Molecule `CC(C)(C)C[C@H]1N[C@@H](C(=O)NCCN2CCC(O)CC2)[C@H](c2cccc(Cl)c2)[C@@]12C(=O)Nc1cc(Cl)c(F)cc12` [MI-759] has an IC50 [1, 9] of 1.4 ± 0.1 µM, an IC50 [1, 10] of 5.5 ± 2.3 µM and an IC50 [2, 11] of 5.2 ± 1 µM. The IC50 [2, 12] was 1.4 ± 0.6 µM and the IC50 [3, 13] was less than 1 µM.

In the case of `O=C(NCC[C@H](O)CO)[C@H]1[C@H](c2cccc(Cl)c2)[C@@]2(C(=O)Nc3cc(Cl)c(F)cc32)[C@H]2CC3(CCCC3)CCN12` [MI-319-38], the IC50 [1, 14] is reported as greater than 5 µM, the IC50 [1, 15] is reported as greater than 10 µM and the IC50 [2, 16] is reported as greater than 10 µM. The IC50 [2, 17] was greater than 10 µM and the IC50 [3, 18] was greater than 3 µM.
